Molecules are shown by their SMILES.

One data set concerns HBsAg. In words: PHH natural infection assay, HBsAg (alphalisa). It counts as cell-based, HBV. To be noted: Hepatitis B virus, Hepatocyte, read-out: HBsAg IC50, HBV-infected primary human hepatocytes, supernatant, alphalisa. In short, it runs like this:
(§1)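 Cryopreserved PHH plated 24 h, infected with HBV at 200 GE/cell plus 4% PEG8000 for 24 h, then sandwich-cultured 72 h with 0.25 mg/mL matrix gel. Compounds at varied concentrations applied twice at 72-h intervals. Supernatant HBsAg and HBeAg measured by AlphaLISA with specific antibodies.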
On the technique in general: Bead proximity is the source of the signal in Alpha formats.

Data set [1] in a line: Cytotoxicity in PHH natural infection assay (Cell Counting Kit-8). The format is cell-based. Particulars: HBV-infected primary human hepatocytes, CCK8. Summed up: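 HBV-infected primary human hepatocytes (200 GE/cell, 4% PEG8000, 24 h), sandwich-cultured 72 h, then given compound-containing medium twice at 72 h intervals. Cytotoxicity read by CCK-8 at end of treatment.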
On the technique in general: Formazan colour is commonly taken as a measure of viable cells.

The next data set concerns HBeAg. The data set can be described thus: PHH natural infection assay, HBeAg (alphalisa). The format is cell-based, HBV. Particulars: Hepatitis B virus, Hepatocyte, read-out: HBeAg IC50, HBV-infected primary human hepatocytes, supernatant, alphalisa. Summed up:
as §1

As for `CC1(C(=O)NC2CC3(C2)CC(c2nc4cc(Cl)ccc4o2)C3)CCS(=O)(=O)C1` (stereo not drawn) [Example 48, N-(6-(5-chlorobenzo[d]oxazol-2-yl)spiro[3.3]heptan-2-yl)-3-methyltetrahydrothiophene-3-carboxamide 1,1-dioxide], the half-inhibitory concentration (IC50) (usually the concentration needed to halve the response being measured) in the data set with HBsAg came out at 2.62 µM; with HBeAg it was 1.1 µM. In addition, the CC50 (as a rule, the concentration that lowers cell viability or growth by half) at 144 h in data set [1] was greater than 100 µM.

On to `O=C(NC1CC2(C1)CC(c1nc3cc(Cl)ccc3o1)C2)C1CS(=O)(=O)C1` (stereo not drawn) [Example 49, N-[6-(5-chloro-1,3-benzoxazol-2-yl)spiro[3.3]heptan-2-yl]-1,1-dioxo-thietane-3-carboxamide], for which the IC50 in the data set on HBsAg amounted to 3.27 µM; in the data set with HBeAg it was 2.61 µM. The cytotoxic concentration (CC50) at 144 h in data set [1] was 96.1 µM.

Consider `O=C(CC1CS(=O)(=O)C1)NC1CC2(C1)CC(c1nc3cc(Cl)ccc3o1)C2` (stereo not drawn) [Example 50, N-[6-(5-chloro-1,3-benzoxazol-2-yl)spiro[3.3]heptan-2-yl]-2-(1,1-dioxothietan-3-yl)acetamide], for which the IC50 in the data set with HBsAg was 1.96 µM; in the data set on HBeAg, 1.36 µM. The same compound returned a 50% cytotoxic concentration (CC50) at 144 h in data set [1] greater than 100 µM.

Take `O=C(NC1CC2(C1)CC(c1nc3cc(Cl)ccc3o1)C2)C1CC2(C1)CS(=O)(=O)C2` (stereo not drawn) [Example 52, N-[6-(5-chloro-1,3-benzoxazol-2-yl)spiro[3.3]heptan-2-yl]-2,2-dioxo-2-thiaspiro[3.3]heptane-6-carboxamide]: the IC50 in the data set with HBsAg came out at 9.99 µM; in the data set on HBeAg it was 5.71 µM. In data set [1], this compound had a CC50 at 144 h greater than 100 µM.

For `O=C(NC1CC2(C1)CC(c1nc3cc(Cl)ccc3o1)C2)C1CCS(=O)(=O)CC1` (stereo not drawn) [Example 53, N-[6-(5-chloro-1,3-benzoxazol-2-yl)spiro[3.3]heptan-2-yl]-1,1-dioxo-thiane-4-carboxamide], the IC50 was 6.7 µM in the data set with HBsAg and 5.23 µM with HBeAg. Besides, the CC50 at 144 h in data set [1] is greater than 100 µM.

Take `CC1(C(=O)NC2CC3(C2)CC(c2nc4cc(Cl)ccc4o2)C3)CCS(=O)(=O)CC1` (stereo not drawn) [Example 54, N-(6-(5-chlorobenzo[d]oxazol-2-yl)spiro[3.3]heptan-2-yl)-4-methyltetrahydro-2H-thiopyran-4-carboxamide 1,1-dioxide]: the IC50 was 1.94 µM in the data set with HBsAg and 1.86 µM with HBeAg. Besides, in data set [1], the cytotoxic concentration (CC50) at 144 h was greater than 100 µM.

`O=C(CC1CCCS(=O)(=O)C1)NC1CC2(C1)CC(c1nc3cc(Cl)ccc3o1)C2` (stereo not drawn) [Example 55, N-[6-(5-chloro-1,3-benzoxazol-2-yl)spiro[3.3]heptan-2-yl]-2-(1,1-dioxothian-3-yl)acetamide]: the IC50 is 3.39 µM with HBsAg and 2.6 µM with HBeAg. This compound came in with a CC50 at 144 h in data set [1] of 78.9 µM.

As for `O=C(CN1CCCCS1(=O)=O)NC1CC2(C1)CC(c1nc3cc(Cl)ccc3o1)C2` (stereo not drawn) [Example 56, N-[6-(5-chloro-1,3-benzoxazol-2-yl)spiro[3.3]heptan-2-yl]-2-(1,1-dioxothiazinan-2-yl)acetamide], the IC50 in the data set with HBsAg is 2.29 µM; with HBeAg, 2.06 µM. The compound further gave a cytotoxic concentration (CC50) at 144 h in data set [1] greater than 100 µM.

In the case of `O=C(NC1CC2(C1)CC(c1nc3cc(C(F)(F)F)ccc3o1)C2)C1CCS(=O)(=O)CC1` (stereo not drawn) [Example 57, 1,1-dioxo-N-[6-[5-(trifluoromethyl)-1,3-benzoxazol-2-yl]spiro[3.3]heptan-2-yl]thiane-4-carboxamide], the IC50 worked out at 4.47 µM in the data set with HBsAg and 3.59 µM in the data set with HBeAg. In data set [1], this compound had a CC50 at 144 h greater than 100 µM.

For `CC(C)S(=O)(=O)NC1CC2(C1)CC(c1nc3cc(Cl)ccc3o1)C2` (stereo not drawn) [Example 58, N-[6-(5-chloro-1,3-benzoxazol-2-yl)spiro[3.3]heptan-2-yl]propane-2-sulfonamide], the IC50 in the data set on HBsAg was 6.19 µM; in the data set with HBeAg it was 5.97 µM. This compound displayed a CC50 at 144 h in data set [1] greater than 100 µM.

As for `CCNC(=O)NC1CC2(C1)CC(c1nc3cc(Cl)ccc3o1)C2` (stereo not drawn) [Example 59, 1-[6-(5-chloro-1,3-benzoxazol-2-yl)spiro[3.3]heptan-2-yl]-3-ethyl-urea], the IC50 in the data set on HBsAg amounted to 8.6 µM; in the data set with HBeAg, 3.94 µM. Moreover, the CC50 at 144 h in data set [1] is greater than 100 µM.

Turning to `CCCNC(=O)NC1CC2(C1)CC(c1nc3cc(Cl)ccc3o1)C2` (stereo not drawn) [Example 60, 1-[6-(5-chloro-1,3-benzoxazol-2-yl)spiro[3.3]heptan-2-yl]-3-propyl-urea], the figures for the IC50 in the data set on HBsAg and in the data set with HBeAg were 7.19 µM and 5.1 µM, respectively. The compound also returned a CC50 at 144 h in data set [1] greater than 100 µM.

With `CC(C)NC(=O)NC1CC2(C1)CC(c1nc3cc(Cl)ccc3o1)C2` (stereo not drawn) [Example 61, 1-[6-(5-chloro-1,3-benzoxazol-2-yl)spiro[3.3]heptan-2-yl]-3-isopropyl-urea], the concentration for half-maximal inhibition (IC50) in the data set on HBsAg came to 4.71 µM; in the data set on HBeAg, 3.82 µM. This compound also displayed a CC50 at 144 h in data set [1] greater than 100 µM.

As for `CCN(C)C(=O)NC1CC2(C1)CC(c1nc3cc(Cl)ccc3o1)C2` (stereo not drawn) [Example 62, 3-[6-(5-chloro-1,3-benzoxazol-2-yl)spiro[3.3]heptan-2-yl]-1-ethyl-1-methyl-urea], the figures for the IC50 with HBsAg and in the data set on HBeAg were 3.23 µM and 2.12 µM, respectively. The compound also came in with a CC50 at 144 h in data set [1] greater than 100 µM.

For the compound `O=C(NCC1CCOC1)NC1CC2(C1)CC(c1nc3cc(Cl)ccc3o1)C2` (stereo not drawn) [Example 63, 1-[6-(5-chloro-1,3-benzoxazol-2-yl)spiro[3.3]heptan-2-yl]-3-(tetrahydrofuran-3-ylmethyl)urea], the IC50 in the data set on HBsAg was found to be 8.02 µM; with HBeAg it was 5.3 µM. Besides, the CC50 at 144 h in data set [1] was greater than 100 µM.

As to `O=C(NCC1CC(O)C1)NC1CC2(C1)CC(c1nc3cc(Cl)ccc3o1)C2` (stereo not drawn) [Example 64, 1-[6-(5-chloro-1,3-benzoxazol-2-yl)spiro[3.3]heptan-2-yl]-3-[(3-hydroxycyclobutyl)methyl]urea], the IC50 is 5.62 µM with HBsAg and 4.47 µM in the data set on HBeAg. For the same compound, the CC50 at 144 h in data set [1] was 84.8 µM.

On to `O=C(NC1CCOC1)NC1CC2(C1)CC(c1nc3cc(Cl)ccc3o1)C2` (stereo not drawn) [Example 65, 1-[6-(5-chloro-1,3-benzoxazol-2-yl)spiro[3.3]heptan-2-yl]-3-tetrahydrofuran-3-yl-urea], for which the IC50 in the data set with HBsAg came out at 3.94 µM; with HBeAg, 3.4 µM. For the same compound, in data set [1], the CC50 at 144 h was greater than 100 µM.

As for `O=C(NC1CC2(C1)CC(c1nc3cc(Cl)ccc3o1)C2)N1CCCC1` (stereo not drawn) [Example 66, N-[6-(5-chloro-1,3-benzoxazol-2-yl)spiro[3.3]heptan-2-yl]pyrrolidine-1-carboxamide], the IC50 with HBsAg came to 2.5 µM; with HBeAg, 1.97 µM. Further, the CC50 at 144 h in data set [1] was 92.1 µM.

Consider `O=C(NC1CC2(C1)CC(c1nc3cc(Cl)ccc3o1)C2)N1CCC2(COC2)C1` (stereo not drawn) [Example 67, N-[6-(5-chloro-1,3-benzoxazol-2-yl)spiro[3.3]heptan-2-yl]-2-oxa-7-azaspiro[3.4]octane-7-carboxamide], for which the figures for the IC50 in the data set with HBsAg and in the data set on HBeAg were 3.95 µM and 3.76 µM, respectively. The CC50 at 144 h in data set [1] is greater than 100 µM.

With `O=C(NC1CC2(C1)CC(c1nc3cc(Cl)ccc3o1)C2)N1CCS(=O)(=O)CC1` (stereo not drawn) [Example 68, N-[6-(5-chloro-1,3-benzoxazol-2-yl)spiro[3.3]heptan-2-yl]-1,1-dioxo-1,4-thiazinane-4-carboxamide], the IC50 in the data set on HBsAg is 6.65 µM; with HBeAg, 4.12 µM. Also, the CC50 at 144 h in data set [1] was greater than 100 µM.

For the compound `CS(=O)(=O)N1CCC(C(=O)NC2CC3(C2)CC(c2nc4cc(Cl)ccc4o2)C3)C1` (stereo not drawn) [Example 69, N-[6-(5-chloro-1,3-benzoxazol-2-yl)spiro[3.3]heptan-2-yl]-1-methylsulfonyl-pyrrolidine-3-carboxamide], the half-maximal inhibitory concentration (IC50) turned out to be 1.79 µM in the data set on HBsAg and 1.31 µM in the data set on HBeAg. In data set [1], this compound yielded a CC50 at 144 h greater than 100 µM.

As to `CCS(=O)(=O)N1CCC(C(=O)NC2CC3(C2)CC(c2nc4cc(Cl)ccc4o2)C3)C1` (stereo not drawn) [Example 70, N-[6-(5-chloro-1,3-benzoxazol-2-yl)spiro[3.3]heptan-2-yl]-1-ethylsulfonyl-pyrrolidine-3-carboxamide], the IC50 in the data set with HBsAg came out at 5.42 µM; with HBeAg, 3.62 µM. This compound also displayed a CC50 at 144 h in data set [1] greater than 10 µM.

Consider `CCCS(=O)(=O)N1CCC(C(=O)NC2CC3(C2)CC(c2nc4cc(Cl)ccc4o2)C3)C1` (stereo not drawn) [Example 71, N-[6-(5-chloro-1,3-benzoxazol-2-yl)spiro[3.3]heptan-2-yl]-1-propylsulfonyl-pyrrolidine-3-carboxamide], for which the results for the IC50 in the data set on HBsAg and in the data set on HBeAg were 9.73 µM and 9.43 µM, respectively. This compound showed a CC50 at 144 h in data set [1] greater than 10 µM.

For `O=C(NC1CC2(C1)CC(c1nc3cc(Cl)ccc3o1)C2)C1CCN(S(=O)(=O)C2CC2)C1` (stereo not drawn) [Example 72, N-[6-(5-chloro-1,3-benzoxazol-2-yl)spiro[3.3]heptan-2-yl]-1-cyclopropylsulfonyl-pyrrolidine-3-carboxamide], the IC50 was determined as 9.56 µM in the data set on HBsAg and 4.43 µM in the data set on HBeAg. This compound returned a CC50 at 144 h in data set [1] greater than 10 µM.

On to `CC(=O)N1CCC(C(=O)NC2CC3(C2)CC(c2nc4cc(Cl)ccc4o2)C3)C1` (stereo not drawn) [Example 73, 1-acetyl-N-[6-(5-chloro-1,3-benzoxazol-2-yl)spiro[3.3]heptan-2-yl]pyrrolidine-3-carboxamide], for which the IC50 in the data set on HBsAg was 9.05 µM; with HBeAg, 6.39 µM. The CC50 at 144 h in data set [1] was greater than 10 µM.

Consider `O=C(NC1CC2(C1)CC(c1nc3cc(Cl)ccc3o1)C2)C1CCN(C(=O)C2CC2)C1` (stereo not drawn) [Example 74, N-[6-(5-chloro-1,3-benzoxazol-2-yl)spiro[3.3]heptan-2-yl]-1-(cyclopropanecarbonyl)pyrrolidine-3-carboxamide], for which the 50% inhibitory concentration (IC50) is 3.2 µM in the data set on HBsAg and 2.17 µM with HBeAg. The compound also returned a CC50 at 144 h in data set [1] greater than 10 µM.

(Values after patent US20230286968A1, “ARYLOXAZOLO SPIRAL RING DERIVATIVES FOR THE TREATMENT AND PROPHYLAXIS OF HEPATITIS B VIRUS INFECTION” (Hoffmann-La Roche Inc., priority 2020, published 2023).)
